From patent US10759796B2, “CXCR4 inhibitors and uses thereof” (X4 Pharmaceuticals, Inc., priority 2016, dated 2020)

Tests used:
in vitro = settings: human, Caco-2, pH 7.4
Procedure: Example 28: Caco-2 Permeability Assay
The goal of this assay was to evaluate the intestinal absorption potential of drug candidates using Caco-2 cell lines.
1. Prewarm Prewarm HBSS Buffer in 37° C. water bath
2. Sonicate Take compounds from −20° C., sonicate for a few minutes (no less than 1 minute)
HBSS buffer with 0.3% DMSO and 5 μM LY: add 150 μL DMSO and 50 μL LY (5 mM) into 50 ml HBSS buffer (pH 7.4).
HBSS buffer with 0.1% DMSO and 5 μM LY: add 50 μL DMSO and 50 μL LY (5 mM) into 50 mL HBSS buffer (pH 7.4).
HBSS buffer with 0.3% DMSO: add 150 μL DMSO into 50 ml HBSS buffer (pH 7.4).
HBSS buffer with 0.1% DMSO: add 50 μL DMSO into 50 ml HBSS buffer (pH 7.4).
Receiver Solution Buffer:
Prepare HBSS buffer with 0.4% DMSO: add 200 μL DMSO into 50 ml HBSS buffer (pH 7.4).
Prepare HBSS buffer with 0.4% DMSO and 5 μM LY: add 200 μL DMSO and 50 μL LY (5 mM) into 50 ml HBSS buffer (pH 7.4).
4. Measure TEER Take cell culture plate out of incubator, wash the cell monolayers with HBSS buffer, and then measure TEER values at Rm temperature. 5. Centrifuge Centrifuge the compound solution (from step 3) at 4000 rpm for 5 min before loading to donor chambers. 6. Dosing Add solution based on the volumes listed in the following table (make sure to take extra 100 μL of donor sample for TO as Backup).
7. Apical LYT0 Samples To determine LY concentration in the apical chember, take 100 μL sample from apical chambers into an opaque plate for LYT0. 8. Prewarm Prewarm apical and basolateral plates at 37° C. for about 5 min, then begin transport by placing the apical plate onto basolateral plate. 9. Incubation Keep the plates in incubator at 37° C. for 90 min. 10. Standard Curve Preparation
For 300 μM compound solution, add 6 μL of compound stock solution into 192 μL of MeOH/H2O (1:1).
Prepare Working Solution in MeOH/H2O (1:1)
3 μL (20×)+57 μL of 0.4% DMSO HBSS+60 μL ACN with IS (Osalmid or Imipramine) - - - 120 μL (1×)
11. Transport Termination Separate the apical plate from the basolateral plate after 90-min incubation.
12. Measure LY Take 100 μL samples from basolateral plate to an opaque plate as LYT90.
13. Measure LY concentrations for LYT0 and LYT90 by Fluorometer (at excitation of 485 nm/emission of 535 nm).
Study details: Test concentration 10 μM
Test systems: Caco-2/HBSS solution
Incubation conditions: 0, 90 min at 37° C.
Sample size: Duplicates (n=2)
Bioanalytical method: LC-MS/MS
For Millicell-24 Cell Culture Plates: surface area of the membrane=0.7 cm^2, VA=0.8 mL (A-to-B) or 0.4 mL (B-to-A)
1. Papp values were calculated based on calculated concentrations.
The compound numbers correspond to the compound numbers in Table 1.

[1] = target: CXCR-4 transfected U87 cell line (U87.CXCR4) (Homo sapiens (Human), UniProt P61073); experiment: Intracellular CXCL-12-induced calcium mobilization assay (FLIPR); type: cell-based; settings: U87.CXCR4 cells, CXCL-12 25-50 ng/mL; read-out: IC50 CXCL-12 Ca2+ flux U87.CXCR4+
Procedure: Example 28: REGA Screening Assay
Intracellular CXCL-12-Induced Calcium Mobilization Assay
Intracellular calcium mobilization induced by chemokines or chemokine-derived peptides were evaluated using a calcium responsive fluorescent probe and a FLIPR system. The CXCR-4 transfected U87 cell line (U87.CXCR4) cells were seeded in gelatine-coated black-wall 96-well plates at 20,000 cells per well and incubated for 12 hours. Cells were then loaded with the fluorescent calcium probe Fluo-2 acetoxymethyl at 4 μM final concentration in assay buffer (Hanks' balanced salt solution with 20 mM HEPES buffer and 0.2% bovine serum albumin, pH 7.4) for 45 min at 37° C. The intracellular calcium mobilization induced by the CXCL-12 (25-50 ng/mL) was then measured at 37° C. by monitoring the fluorescence as a function of time in all the wells simultaneously using a fluorometric imaging plate reader (FLIPR Tetra, Molecular Devices).

[2] = target: Jurkat cells expressing CXCR4 (Homo sapiens (Human), UniProt P61073); experiment: Chemokine (CXCL12-AF647) binding inhibition assay; settings: CXCL12-AF647 25 ng/mL, read-out: IC50 CXCL-12 binding Jurkat
Procedure: Chemokine (CXCL12-AF647) Binding Inhibition Assay
Jurkat cells expressing CXCR4 were washed once with assay buffer (Hanks' balanced salt solution with 20 mM HEPES buffer and 0.2% bovine serum albumin, pH 7.4) and then incubated for 15 min at room temperature with the test compounds diluted in assay buffer at dose-dependent concentrations. Subsequently, CXCL12-AF647 (25 ng/mL) was added to the compound-incubated cells. The cells were incubated for 30 min at room temperature. Thereafter, the cells were washed twice in assay buffer, fixed in 1% paraformaldehyde in PBS, and analyzed on the FL4 channel of a FACSCalibur flow cytometer equipped with a 635-nm red diode laser (Becton Dickinson, San Jose, Calif., USA).
The percentages of inhibition of CXCL12-AF647 binding were calculated according to the formula: [1−((MFI−MFINC)/(MFIPC−MFINC))]×100 where MFI is the mean fluorescence intensity of the cells incubated with CXCL12-AF647 in the presence of the inhibitor, MFINC is the mean fluorescence intensity measured in the negative control (i.e., autofluorescence of unlabeled cells), and MFIPC is the mean fluorescence intensity of the positive control (i.e., cells exposed to CXCL12-AF647 alone).

Sequence of CXCR-4 transfected U87 cell line (U87.CXCR4) (P61073 whole entry): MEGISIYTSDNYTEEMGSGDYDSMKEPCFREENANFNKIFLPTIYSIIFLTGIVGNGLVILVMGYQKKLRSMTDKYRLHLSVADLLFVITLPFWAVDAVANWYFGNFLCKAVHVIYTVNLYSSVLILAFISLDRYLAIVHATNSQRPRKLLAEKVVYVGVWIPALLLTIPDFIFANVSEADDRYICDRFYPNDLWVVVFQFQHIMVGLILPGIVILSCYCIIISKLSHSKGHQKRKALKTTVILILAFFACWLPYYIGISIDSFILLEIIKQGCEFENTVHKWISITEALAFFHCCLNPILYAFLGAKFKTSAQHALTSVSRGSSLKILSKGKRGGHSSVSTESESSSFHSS
Sequence of Jurkat cells expressing CXCR4 (P61073 whole entry): as above

Row | Structure (SMILES) | Papp A→B at 90 min, 10 μM (in vitro) | Papp B→A at 90 min, 10 μM (in vitro) | efflux ratio at 90 min, 10 μM (in vitro) | IC50 [1] | IC50 [2]
1 | Cc1cccnc1[C@@H]1CCC[C@H](c2cn3ccccc3n2)N1CCc1cnccn1 [Compound I-9] | 10 to 30 ×10⁻⁶ cm/s | 10 to 30 ×10⁻⁶ cm/s | 0.1 to 10 | 0.01 to 100 nM | 0.01 to 100 nM
2 | Cc1cccnc1[C@@H]1CCC[C@H](c2nc3cccc(N4CCN(C)CC4)n3c2CO)N1C [Compound I-11] | 0.1 to 10 ×10⁻⁶ cm/s | 10 to 30 ×10⁻⁶ cm/s | 0.1 to 10 | 0.01 to 100 nM | 0.01 to 100 nM
3 | COCc1c([C@H]2CCC[C@@H](c3ncccc3C)N2C)nc2cccc(N3CCN(C)CC3)n12 [Compound I-12] | 0.1 to 10 ×10⁻⁶ cm/s | 10 to 30 ×10⁻⁶ cm/s | 0.1 to 10 | 0.01 to 100 nM | 0.01 to 100 nM
4 | CCN1CCN(c2cccc3nc([C@H]4CCC[C@@H](c5ncccc5C)N4C)cn23)CC1 [Compound I-13] | 0.1 to 10 ×10⁻⁶ cm/s | 10 to 30 ×10⁻⁶ cm/s | 0.1 to 10 | 0.01 to 100 nM | 0.01 to 100 nM
5 | Cc1cccnc1[C@@H]1CCC[C@H](c2cn3c(N4CCN(CC(F)(F)F)CC4)cccc3n2)N1C [Compound I-14] | 10 to 30 ×10⁻⁶ cm/s | 10 to 30 ×10⁻⁶ cm/s | 0.1 to 10 | 100 to 1000 nM | 100 to 1000 nM
6 | Cc1cccnc1[C@@H]1CCC[C@H](c2cn3c(N4CCN(C(C)C)CC4)cccc3n2)N1C [Compound I-15] | 0.1 to 10 ×10⁻⁶ cm/s | 10 to 30 ×10⁻⁶ cm/s | 0.1 to 10 | 0.01 to 100 nM | 0.01 to 100 nM
7 | Cc1cccnc1[C@@H]1CCC[C@H](c2cn3ccccc3n2)N1Cc1ccccc1-n1cccn1 [Compound I-16] | 10 to 30 ×10⁻⁶ cm/s | 10 to 30 ×10⁻⁶ cm/s | 0.1 to 10 | 0.01 to 100 nM | 0.01 to 100 nM
8 | Cc1cccnc1[C@@H]1CCC[C@H](c2nc3cccc(N4CCN(C)CC4)n3c2Br)N1C [Compound I-17] | 0.1 to 10 ×10⁻⁶ cm/s | 0.1 to 10 ×10⁻⁶ cm/s | 0.1 to 10 | 0.01 to 100 nM | 0.01 to 100 nM
9 | CCOCc1c([C@H]2CCC[C@@H](c3ncccc3C)N2C)nc2cccc(N3CCN(C)CC3)n12 [Compound I-21] | 0.1 to 10 ×10⁻⁶ cm/s | 10 to 30 ×10⁻⁶ cm/s | 0.1 to 10 | 0.01 to 100 nM | 0.01 to 100 nM
10 | Cc1cccnc1[C@@H]1CCC[C@H](c2nc3ccccn3c2CCCN2CCOCC2)N1C [Compound I-29] | 0.1 to 10 ×10⁻⁶ cm/s | 10 to 30 ×10⁻⁶ cm/s | 0.1 to 10 | 100 to 1000 nM | 0.01 to 100 nM
11 | CCN1[C@@H](c2cn3c(N4CCN(C(C)C)CC4)cccc3n2)CCC[C@H]1c1ncccc1C [Compound I-37] | 0.1 to 10 ×10⁻⁶ cm/s | 10 to 30 ×10⁻⁶ cm/s | 0.1 to 10 | 0.01 to 100 nM | 0.01 to 100 nM
12 | Cc1cccnc1[C@@H]1CCC[C@H](c2nc3ccccn3c2CN2CCN(C)CC2)N1C [Compound I-38] | 0.1 to 10 ×10⁻⁶ cm/s | > 30 ×10⁻⁶ cm/s | > 30 | 0.01 to 100 nM | 0.01 to 100 nM
13 | Cc1cccnc1[C@@H]1CCC[C@H](c2nc3ccccn3c2CN2CCN(C(C)C)CC2)N1C [Compound I-39] | 0.1 to 10 ×10⁻⁶ cm/s | > 30 ×10⁻⁶ cm/s | 10 to 30 | 100 to 1000 nM | 0.01 to 100 nM
14 | CCN1CCN(Cc2c([C@H]3CCC[C@@H](c4ncccc4C)N3C)nc3ccccn23)CC1 [Compound I-40] | 0.1 to 10 ×10⁻⁶ cm/s | > 30 ×10⁻⁶ cm/s | > 30 | 0.01 to 100 nM | 0.01 to 100 nM
15 | CCN1[C@@H](c2nc3cccc(N4CCN(C(C)C)CC4)n3c2Br)CCC[C@H]1c1ncccc1C [Compound I-45] | 0.1 to 10 ×10⁻⁶ cm/s | 0.1 to 10 ×10⁻⁶ cm/s | 0.1 to 10 | ≥ 1000 nM | 100 to 1000 nM
16 | CCN1[C@@H](c2nc3cccc(N4CCN(C)CC4)n3c2Br)CCC[C@H]1c1ncccc1C [Compound I-46] | 0.1 to 10 ×10⁻⁶ cm/s | 0.1 to 10 ×10⁻⁶ cm/s | 0.1 to 10 | 0.01 to 100 nM | 0.01 to 100 nM
17 | Cc1cccnc1[C@@H]1CCC[C@H](c2nc3cccc(N4CCN(C)CC4)n3c2Br)N1C(C)C [Compound I-47] | 0.1 to 10 ×10⁻⁶ cm/s | 0.1 to 10 ×10⁻⁶ cm/s | 0.1 to 10 | 0.01 to 100 nM | 0.01 to 100 nM
18 | Cc1cccnc1[C@@H]1CCC[C@H](c2nc3cccc(N4CCN(C)CC4)n3c2COC(C)C)N1C [Compound I-48] | 0.1 to 10 ×10⁻⁶ cm/s | 10 to 30 ×10⁻⁶ cm/s | 0.1 to 10 | 100 to 1000 nM | 0.01 to 100 nM
19 | Cc1cccnc1[C@@H]1CCC[C@H](c2cn3c(N4CCN(C)CC4)cccc3n2)N1CCCO [Compound I-49] | 0.1 to 10 ×10⁻⁶ cm/s | 10 to 30 ×10⁻⁶ cm/s | 0.1 to 10 | 0.01 to 100 nM | 0.01 to 100 nM
